# Results taken from US10913710B2, “Benzene disulfonamide for the treatment of cancer” (priority 2017, dated 2021).
# Target: PDEδ (Homo sapiens (Human), UniProt O43924)
# Assay: Fluorescence polarization competition binding assay: displacement titration of labeled Atorvastatin probe for KD
# Conditions: fluorescence polarization assay; activity classes; read-out: KD
# Protocol: Example D.2: Displacement Titrations of Labeled Atorvastatin-Probe for the Determination of KD Values
# Displacement Titrations of Labeled Atorvastatin-Probe for the Determination of KD Values:
# The purification was followed by size exclusion gel filtration on a Superdex 75 S26/60 column using buffer A (25 mM Tris-HCl, pH 7.5, 150 mM NaCl and 3 mM DTE).
row,Compound,Kd
1,"CCN(Cc1ccccc1)S(=O)(=O)c1ccc(S(=O)(=O)N(Cc2ccc(F)cc2)Cc2ccco2)cc1 [Compound 47, N1-benzyl-N1-ethyl-N4-(4-fluorobenzyl)-N4-(furan-2-ylmethyl)benzene-1,4-disulfonamide]",30 to 100 nM
2,"CCN(Cc1ccccc1)S(=O)(=O)c1ccc(S(=O)(=O)N(Cc2ccccc2)Cc2ccccn2)cc1 [Compound 48, N1,N4-dibenzyl-N1-ethyl-N4-(pyridin-2-ylmethyl)benzene-1,4-disulfonamide]",1 to 30 nM
3,"CCN(Cc1ccccc1)S(=O)(=O)c1ccc(S(=O)(=O)N(Cc2ccccc2)Cc2ccccc2F)cc1 [Compound 49, N1,N4-dibenzyl-N1-ethyl-N4-(2-fluorobenzyl)benzene-1,4-disulfonamide]",1 to 30 nM
4,"CC1CCCN(S(=O)(=O)c2ccc(S(=O)(=O)N(Cc3ccccc3Cl)CC3CCCO3)cc2)C1 (stereo not drawn) [Compound 50, N-(2-chlorobenzyl)-4-((3-methylpiperidin-1-yl)sulfonyl)-N-((tetrahydrofuran-2-yl)methyl)benzenesulfonamide]",30 to 100 nM
5,"COc1cccc(CN(C2CC2)S(=O)(=O)c2ccc(S(=O)(=O)NCc3ccccc3)cc2)c1OC [Compound 51, N1-benzyl-N4-cyclopropyl-N4-(2,3-dimethoxybenzyl)benzene-1,4-disulfonamide]",100 to 1000 nM
6,"O=S(=O)(c1ccc(S(=O)(=O)N(Cc2ccc(Cl)cc2)Cc2ccco2)cc1)N1CCCCCC1 [Compound 52, 4-(azepan-1-ylsulfonyl)-N-(4-chlorobenzyl)-N-(furan-2-ylmethyl)benzenesulfonamide]",100 to 1000 nM
7,"O=S(=O)(NC1CCCC1)c1ccc(S(=O)(=O)N(Cc2ccc(F)cc2)Cc2ccccc2F)cc1 [Compound 53, N1-cyclopentyl-N4-(2-fluorobenzyl)-N4-(4-fluorobenzyl)benzene-1,4-disulfonamide]",100 to 1000 nM
8,"O=S(=O)(NC1CCCCC1)c1ccc(S(=O)(=O)N(Cc2ccccc2)Cc2ccco2)cc1 [Compound 54, N1-benzyl-N4-cyclohexyl-N1-(furan-2-ylmethyl)benzene-1,4-disulfonamide]",100 to 1000 nM
9,"CCN(Cc1ccccc1)S(=O)(=O)c1ccc(S(=O)(=O)N(Cc2ccccc2F)CC2CCCO2)cc1 (stereo not drawn) [Compound 55, N1-benzyl-N1-ethyl-N4-(2-fluorobenzyl)-N4-((tetrahydrofuran-2-yl)methyl)benzene-1,4-disulfonamide]",1 to 30 nM
10,"CC(C)c1ccc(CN(CC2CCCO2)S(=O)(=O)c2ccc(S(=O)(=O)N(C)C3CCCCC3)cc2)cc1 (stereo not drawn) [Compound 56, N1-cyclohexyl-N4-(4-isopropylbenzyl)-N1-methyl-N4-((tetrahydrofuran-2-yl)methyl)benzene-1,4-disulfonamide]",1 to 30 nM
11,"COc1ccc(CN(C2CCCCC2C)S(=O)(=O)c2ccc(S(=O)(=O)N(C)C3CCCCC3)cc2)cc1OC (stereo not drawn) [Compound 57, N1-cyclohexyl-N4-(3,4-dimethoxybenzyl)-N1-methyl-N4-(2-methylcyclohexyl)benzene-1,4-disulfonamide]",100 to 1000 nM
12,"CC1CCCN(S(=O)(=O)c2ccc(S(=O)(=O)N(Cc3ccccc3F)C3CCCC3)cc2)C1 (stereo not drawn) [Compound 58, N-cyclopentyl-N-(2-fluorobenzyl)-4-((3-methylpiperidin-1-yl)sulfonyl)benzenesulfonamide]",30 to 100 nM
13,"CC(C)c1ccc(CN(Cc2ccco2)S(=O)(=O)c2ccc(S(=O)(=O)N(C)Cc3ccccc3)cc2)cc1 [Compound 59, N1-benzyl-N4-(furan-2-ylmethyl)-N4-(4-isopropylbenzyl)-N1-methylbenzene-1,4-disulfonamide]",100 to 1000 nM
14,"COc1cc(CN(C2CCCCC2C)S(=O)(=O)c2ccc(S(=O)(=O)NC3CCCC3)cc2)cc(OC)c1OC (stereo not drawn) [Compound 60, N1-cyclopentyl-N4-(2-methylcyclohexyl)-N4-(3,4,5-trimethoxybenzyl)benzene-1,4-disulfonamide]",100 to 1000 nM
15,"CN(Cc1ccccc1)S(=O)(=O)c1ccc(S(=O)(=O)N(Cc2ccc(F)cc2)C2CCCCC2)cc1 [Compound 61, N1-benzyl-N4-cyclohexyl-N4-(4-fluorobenzyl)-N1-methylbenzene-1,4-disulfonamide]",1 to 30 nM
16,"O=S(=O)(NCC1CCCO1)c1ccc(S(=O)(=O)N(Cc2ccccc2)Cc2ccc(Cl)cc2)cc1 (stereo not drawn) [Compound 62, N1-benzyl-N1-(4-chlorobenzyl)-N4-((tetrahydrofuran-2-yl)methyl)benzene-1,4-disulfonamide]",100 to 1000 nM
17,"CC(C)c1ccc(CN(CC2CCCO2)S(=O)(=O)c2ccc(S(=O)(=O)NCc3ccccc3)cc2)cc1 (stereo not drawn) [Compound 63, N1-benzyl-N4-(4-isopropylbenzyl)-N4-((tetrahydrofuran-2-yl)methyl)benzene-1,4-disulfonamide]",1 to 30 nM
18,"COc1cc(CN(C2CCCCC2)S(=O)(=O)c2ccc(S(=O)(=O)N(C)C3CCCCC3)cc2)cc(OC)c1OC [Compound 64, N1,N4-dicyclohexyl-N1-methyl-N4-(3,4,5-trimethoxybenzyl)benzene-1,4-disulfonamide]",100 to 1000 nM
19,"O=S(=O)(NC1CCCCC1)c1ccc(S(=O)(=O)N(Cc2ccccc2)CC2CCCO2)cc1 (stereo not drawn) [Compound 65, N1-benzyl-N4-cyclohexyl-N1-((tetrahydrofuran-2-yl)methyl)benzene-1,4-disulfonamide]",1 to 30 nM
20,"O=S(=O)(NCc1ccccc1)c1ccc(S(=O)(=O)N(Cc2ccco2)Cc2ccccc2F)cc1 [Compound 66, N1-benzyl-N4-(2-fluorobenzyl)-N4-(furan-2-ylmethyl)benzene-1,4-disulfonamide]",> 1000 nM
21,"COc1cccc(CN(CC2CCCO2)S(=O)(=O)c2ccc(S(=O)(=O)N3CCCC3)cc2)c1 (stereo not drawn) [Compound 67, N-(3-methoxybenzyl)-4-(pyrrolidin-1-ylsulfonyl)-N-((tetrahydrofuran-2-yl)methyl)benzenesulfonamide]",100 to 1000 nM
22,"CCN(CC)S(=O)(=O)c1ccc(S(=O)(=O)N(Cc2ccc(OC)c(OC)c2)C2CCCCC2C)cc1 (stereo not drawn) [Compound 68, N1-(3,4-dimethoxybenzyl)-N4,N4-diethyl-N1-(2-methylcyclohexyl)benzene-1,4-disulfonamide]",1 to 30 nM
23,"CCOc1ccc(CN(C2CC2)S(=O)(=O)c2ccc(S(=O)(=O)N(C)C)cc2)cc1 [Compound 69, N1-cyclopropyl-N1-(4-ethoxybenzyl)-N4,N4-dimethylbenzene-1,4-disulfonamide]",100 to 1000 nM
24,"COc1ccc(CN(C2CCCCC2C)S(=O)(=O)c2ccc(S(=O)(=O)NCc3ccccc3)cc2)cc1OC (stereo not drawn) [Compound 70, N1-benzyl-N4-(3,4-dimethoxybenzyl)-N4-(2-methylcyclohexyl)benzene-1,4-disulfonamide]",100 to 1000 nM
25,"CN(C)S(=O)(=O)c1ccc(S(=O)(=O)N(Cc2ccc(Cl)cc2)Cc2ccco2)cc1 [Compound 71, N1-(4-chlorobenzyl)-N1-(furan-2-ylmethyl)-N4,N4-dimethylbenzene-1,4-disulfonamide]",> 1000 nM
26,"CC1CCCN(S(=O)(=O)c2ccc(S(=O)(=O)N(Cc3ccc4c(c3)OCO4)Cc3ccccc3F)cc2)C1 (stereo not drawn) [Compound 72, N-(benzo[d][1,3]dioxol-5-ylmethyl)-N-(2-fluorobenzyl)-4-((3-methylpiperidin-1-yl)sulfonyl)benzenesulfonamide]",100 to 1000 nM
27,"COc1ccc(CN(Cc2ccc(C)cc2)S(=O)(=O)c2ccc(S(=O)(=O)N(C)Cc3ccccc3)cc2)cc1 [Compound 73, N1-benzyl-N4-(4-methoxybenzyl)-N1-methyl-N4-(4-methylbenzyl)benzene-1,4-disulfonamide]",100 to 1000 nM
